Reference: patent publication US4734418A, “Quinazoline compounds and antihypertensives” (priority 1984, dated 1988)
Read-outs that look alike come from different tables or passages of the source.

System: Spontaneously Hypertensive Rats
Assay: Test 1: antihypertensive effects (systolic tail artery blood pressure) and heart rate in spontaneously hypertensive rats, oral
Assay type: in vivo, rat (male, SHR)
Settings: SHR, oral 1 mg/Kg; for change in vivo at 1 mg/kg: Rattus norvegicus; for Change (%) in heart rate: maximum value
Experimental: The antihypertensive effects of the certain compounds of this invention were studied in the following manner.
Among male, spontaneously hypertensive rats (SHRs) of 20 weeks of age or older and 350-430 g heavy all of which had developed hypertension, those having systolic blood pressures of 180 mmHg or higher were used in groups, each of which was constituted of 3-4 of the rats. […] Besides, heart rates were also measured simultaneously. The compounds were each dissolved or suspended in a 0.5% methylcellulose solution and then administered orally.
*All administered orally at a dosage of 1 mg/Kg except for the compounds
**Each percent change in heart rate is indicated by the corresponding

[1] = 1 hour, read-out: Antihypertensive effects, change (%) in blood pressure, 1 hour later
[2] = 3 hours, read-out: Antihypertensive effects, change (%) in blood pressure, 3 hours later
[3] = 6 hours, read-out: Antihypertensive effects, change (%) in blood pressure, 6 hours later
[4] = 24 hours, read-out: Antihypertensive effects, change (%) in blood pressure, 24 hours later

Row | SMILES | change in vivo at 1 mg/kg [1] [%] | change in vivo at 1 mg/kg [2] [%] | change in vivo at 1 mg/kg [3] [%] | change in vivo at 1 mg/kg [4] [%] | Change (%) in heart rate
1 | CCN(CC)C(=O)c1ccc(N2CCN(c3nc(N)c4cc(OC)c(OC)cc4n3)CC2)nc1 [Example 93] | -4.5 | -9 | -10.5 | -5 | +8.0%
2 | COc1cc2nc(N3CCN(c4ncc5c(n4)N(C)CCN(C)C5=O)CC3)nc(N)c2cc1OC [Example 76] | 0 | -3.8 | -7.2 | -9.6 | +2.9%
3 | CCCn1ccc2nc(N3CCN(c4nc(N)c5cc(OC)c(OC)cc5n4)CC3)ncc2c1=O [Example 5] | 0 | -6.3 | -13.2 | -6.3 | +2.6%
4 | CCn1ccc2nc(N3CCN(c4nc(N)c5cc(OC)c(OC)c(OC)c5n4)CC3)ncc2c1=O.Cl [Example 81, 4-Amino-6,7,8-trimethoxy-2-(4-(5,6-dihydro-6-ethyl-5-oxopyrido[4,3-d]pyrimidin-2-yl)piperazino)quinazoline hydrochloride] | -0.5 | -7.3 | -12.1 | -8.7 | +3.8%
5 | COc1cc2nc(N3CCN(c4ncc5c(n4)CN(CCN(C)C)C5=O)CC3)nc(N)c2cc1OC [Example 86] | 0.5 | 0 | -6.4 | -0.5 | +7.1%
6 | CCn1ccc2nc(N3CCN(c4ncc5cc(OC)c(OC)cc5n4)CC3)ncc2c1=O [Example 95, 6,7-Dimethoxy-2-(4-(5,6-dihydro-6-ethyl-5-oxopyrido[4,3-d]pyrimidine-2-yl)piperazino)quinazoline] | 2.5 | -2.9 | -6.4 | -3.9 | +5.8%
7 | COc1cc2nc(N3CCN(c4ncc(C(N)=O)c(C)n4)CC3)nc(N)c2cc1OC [Example 40] | -1.4 | -15.9 | -18.4 | -8.2 | +5.8%
8 | CCn1cc(C=O)c2nc(N3CCN(c4nc(N)c5cc(OC)c(OC)cc5n4)CC3)ncc2c1=O [Example 14] | -1.9 | -4.8 | -13.9 | -11 | +7.3%
9 | CCNc1nc(N2CCN(c3nc(N)c4cc(OC)c(OC)cc4n3)CC2)ncc1C(=O)OC(C)C [Example 61] | -2.4 | -22 | -28.2 | -12 | +12.4%
10 | CCNc1nc(N2CCN(c3nc(N)c4cc(OC)c(OC)cc4n3)CC2)ncc1C(=O)N(C)C [Example 79] | -27.9 | -33.7 | -45.2 | -21.2 | +22.3%
11 | COc1cc2nc(N3CCN(c4ncc(C(=O)Nc5ccccc5)c(C)n4)CC3)nc(N)c2cc1OC [Example 43] | 4.5 | 0.5 | -6.5 | -9.5 | +5.7%
12 | CCOC(=O)c1cnc(N2CCN(c3nc(N)c4cc(OC)c(OC)cc4n3)CC2)nc1NC [Example 55] | -6.5 | -21.9 | -29.9 | -7.5 | +7.0%
13 | CCNC(=O)c1cnc(N2CCN(c3nc(N)c4cc(OC)c(OC)cc4n3)CC2)nc1 [Example 37] | -4.7 | -16.4 | -21.1 | -8.5 | +5.8%
14 | CCNC(=O)c1cnc(N2CCN(c3nc(N)c4cc(OC)c(OC)cc4n3)CC2)nc1C(=O)NCC [Example 85] | -1.5 | -7.3 | -12.2 | -3.9 | +3.5%
15 | CCOC(=O)c1cc2nc(N3CCN(c4nc(N)c5cc(OC)c(OC)cc5n4)CC3)ncc2c(=O)n1CC [Example 18] | 0 | -3.9 | -9.8 | -3.9 | +11.1%
16 | CCCCN1Cc2nc(N3CCN(c4nc(N)c5cc(OC)c(OC)cc5n4)CC3)ncc2C1=O [Example 27] | -5.4 | -17.6 | -21 | -2.4 | +8.3%
17 | COc1cc2nc(N3CCN(C4=NCc5c(ccn(C)c5=O)N4)CC3)nc(N)c2cc1OC [Example 34] | 0.5 | -9.1 | -13.9 | -7.2 | +2.3%
18 | CCN(CC)C(=O)c1cnc(N2CCN(c3nc(N)c4cc(OC)c(OC)cc4n3)CC2)nc1OC [Example 52] | -8 | -13 | -19.5 | -3 | +3.6%
19 | COc1cc2nc(N3CCN(c4ncc(C#N)c(O)n4)CC3)nc(N)c2cc1OC [Example 51] | 8.6 | 0 | -4.1 | -2.5 | +3.0%
20 | COc1cc2nc(N3CCN(c4ncc(C(=O)NN(C)C)c(C)n4)CC3)nc(N)c2cc1OC [Example 47] | -3.5 | -9 | -12.5 | -2.5 | +6.3%
21 | CCNC(=O)c1cnc(N2CCN(c3nc(N)c4cc(OC)c(OC)cc4n3)CC2)nc1CC [Example 38] | -26.6 | -24.1 | -27.6 | -7.9 | +7.9%
22 | CCn1cc(Cc2ccccc2)c2nc(N3CCN(c4nc(N)c5cc(OC)c(OC)cc5n4)CC3)ncc2c1=O [Example 15] | -2.9 | -7.7 | -12 | -7.7 | +3.7%
23 | CCNC(=O)Cc1cnc(N2CCN(c3nc(N)c4cc(OC)c(OC)cc4n3)CC2)nc1NCC [Example 63] | 3.1 | -4.7 | -9 | -6.6 | +6.8%
24 | COc1cc2nc(N3CCN(c4ncc5c(n4)CN(C4CCCCC4)C5=O)CC3)nc(N)c2cc1OC [Example 91] | -4 | -8 | -12.9 | -2.5 | +8.2%
25 | CCOC(=O)c1cnc(N2CCN(c3nc(N)c4cc(OC)c(OC)cc4n3)CC2)nc1N [Example 54] | -4.3 | -11.4 | -16.7 | -4.8 | +5.2%
26 | CCN(CC)C(=O)c1cnc(N2CCN(c3nc(N)c4cc(OC)c(OC)cc4n3)CC2)nc1SC [Example 53] | -27.9 | -31.3 | -36.1 | -12 | +25.7%
